The results in this text go back to patent publication US7799821B2, “Therapeutic compounds” (Allergan, Inc., priority 2004, dated 2010).

The target of assay [1] is T1, HEK-EBNA cells expressing a PG EP2 receptor subtype (Homo sapiens, UniProt P43116).
T1 construct: expressed in transfected cells; host or cells: HEK-EBNA
Put plainly: cAMP assay, EP2. The class given is cell-based. Summed up: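 HEK-EBNA cells expressing EP2 (10^4 cells per well) were stimulated for 30 min at room temperature with compound in HBSS containing 0.1% BSA, 0.5 mM IBMX and 5 mM HEPES, pH 7.4. Compounds ran in 16-point serial dilutions in triplicate. cAMP was detected by AlphaScreen competition between anti-cAMP acceptor beads and biotin-cAMP/streptavidin donor beads.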

A further assay concerns the target T2, human EP2 receptors (Homo sapiens, UniProt P43116).
T2 construct: expressed in transfected cells; host or cells: HEK 293
Put plainly: Competition radioligand binding ([3H]PGE2), EP2.

[2] abbreviates: unit inferred, read-out: EP2 data cAMP EC50.
The mark [3] stands for this setting: unit inferred, read-out: EP2 data Ki.
Setting [4] is: pH 6.0, unit inferred, read-out: EP2 data Ki pH 6.0.

Read-outs that look alike come from different tables or passages of the source. Where only a bound is given, the exact number is not on record here.

T2 sequence (P43116 whole entry): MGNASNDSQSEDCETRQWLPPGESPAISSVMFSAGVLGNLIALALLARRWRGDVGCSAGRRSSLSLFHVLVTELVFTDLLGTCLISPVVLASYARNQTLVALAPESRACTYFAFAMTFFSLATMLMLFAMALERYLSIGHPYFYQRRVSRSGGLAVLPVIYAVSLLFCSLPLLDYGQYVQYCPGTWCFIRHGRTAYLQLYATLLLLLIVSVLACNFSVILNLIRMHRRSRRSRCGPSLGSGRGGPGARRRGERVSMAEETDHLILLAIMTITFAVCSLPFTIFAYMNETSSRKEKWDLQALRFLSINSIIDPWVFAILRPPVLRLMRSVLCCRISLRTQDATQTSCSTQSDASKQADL
T1 sequence (P43116 whole entry): as above

In general, EC50 refers to the concentration that produces a half-maximal response. For orientation: Ki means a dissociation constant, usually derived from enzyme kinetics or from competition with a known ligand. Regarding `CCCCCCC(O)c1ccc(N2C(=O)CC[C@@H]2CCCc2ccc(C(=O)O)s2)cc1` (single isomer, unassigned) [drawing 155], in assay [1] (setting [2]), the EC50 came out at 1.4 nM. Moreover, the Ki at human EP2 receptors (setting [3]) came out at 12 nM.

Regarding `CCCCCCC(O)c1ccc(N2C(=O)CC[C@@H]2CCCc2ccc(C(=O)O)s2)cc1` (single isomer, unassigned) [drawing 184], the EC50 in assay [1] (setting [2]) turned out to be 0.6 nM. For the same molecule, on human EP2 receptors (setting [3]), the Ki was determined as 8 nM.

`CCCCCCC(O)c1ccc(N2C(=O)CC[C@@H]2COCc2ccc(C(=O)O)s2)cc1` (single isomer, unassigned) [drawing 152]: the EC50 in assay [1] (setting [2]) was 7 nM. The Ki at human EP2 receptors (setting [3]) is 229 nM.

In the case of `CCCCCC(C)c1ccc([C@@H]2[C@@H](C/C=C\CCCC(=O)O)[C@H](C#N)C[C@H]2C)cc1` (stereo partly shown), in assay [1] (Table 3, third part, value in parentheses, read-out: EP2 EC50 in a cAMP mediated assay), the EC50 was determined as 4 nM. For the same molecule, at human EP2 receptors (Table 3, third part, read-out: BINDING-Ki (nM) EP2), the Ki came to 1250 nM.

Consider `CCCCCC(O)c1ccc(N2C(=O)CC[C@@H]2CCCc2ccc(C(=O)O)s2)cc1` (single isomer, unassigned) [drawing 180], for which, in assay [1] (setting [2]), the EC50 stood at 7 nM. Also, the Ki at human EP2 receptors (setting [3]) turned out to be 229 nM.

As for `CCCCCC(=O)c1ccc(N2C(=O)CC[C@@H]2CCCc2ccc(C(=O)O)s2)cc1`, in assay [1] (setting [2]), the EC50 was determined as 1.6 nM. Also, the Ki on human EP2 receptors (setting [3]) turned out to be 31 nM.

With `CCCCCC(O)c1ccc(N2C(=O)CC[C@@H]2CCCc2ccc(C(=O)O)s2)cc1` (stereo partly shown) [drawing 173], the EC50 in assay [1] (setting [2]) is 0.55 nM. For the same molecule, on human EP2 receptors (setting [3]), the Ki was 23 nM.

For the molecule `CCCCCC(O)c1ccc(N2C(=O)CC[C@@H]2COCc2ccc(C(=O)O)s2)cc1` (single isomer, unassigned) [drawing 177], the EC50 in assay [1] (setting [2]) is 1.5 nM. Further, at human EP2 receptors (setting [3]), the Ki was 116 nM.

For `CCCCCC(O)c1ccc(N2C(=O)CC[C@@H]2CCCc2ccc(C(=O)O)s2)cc1` (single isomer, unassigned) [drawing 178], the EC50 in assay [1] (setting [2]) was found to be 0.19 nM. The Ki on human EP2 receptors (setting [3]) was found to be 21 nM.

Regarding `CCCCCC(O)c1ccc(N2C(=O)CC[C@@H]2CCCc2ccc(C(=O)O)s2)cc1` (single isomer, unassigned) [drawing 179], the EC50 in assay [1] (setting [2]) was 0.15 nM. Besides, the Ki at human EP2 receptors (setting [3]) is 15 nM.

Regarding `CCCCCCC(O)c1ccc(N2C(=O)CC[C@@H]2CCCc2ccc(C(=O)O)s2)cc1` (single isomer, unassigned) [drawing 183], in assay [1] (setting [2]), the EC50 was 1.4 nM. Besides, the Ki on human EP2 receptors (setting [3]) turned out to be 12 nM.

As for `CCCCCC(O)c1ccc(N2C(=O)CC[C@@H]2COCc2ccc(C(=O)O)s2)cc1` (single isomer, unassigned) [drawing 176], the EC50 in assay [1] (setting [2]) is 5 nM. Further, the Ki at human EP2 receptors (setting [3]) came to 345 nM.

For the molecule `CCCCCC(O)c1ccc(N2C(=O)CC[C@@H]2COCc2ccc(C(=O)O)s2)cc1` (single isomer, unassigned) [drawing 148], the EC50 in assay [1] (setting [2]) came out at 5 nM. Also, at human EP2 receptors (setting [3]), the inhibition constant Ki came to 345 nM.

As to `CCCCCCC(O)c1ccc(N2C(=O)CC[C@@H]2CCCc2ccc(C(=O)O)s2)cc1` (single isomer, unassigned) [drawing 156], the 50% effective concentration (EC50) in assay [1] (setting [2]) is 0.6 nM. At human EP2 receptors (setting [3]), the Ki is 8 nM.

Turning to `CC(C)(C)c1ccc(N2C(=O)CC[C@@H]2COCc2ccc(C(=O)O)o2)cc1`, the EC50 in assay [1] (setting [2]) worked out at 28 nM. The Ki on human EP2 receptors (setting [4]) is 189 nM; at human EP2 receptors (setting [3]) it was 4000 nM.

Turning to `CCCCCC(O)c1ccc(N2C(=O)CC[C@@H]2CCCc2ccc(C(=O)O)s2)cc1` (stereo partly shown) [drawing 145], the EC50 in assay [1] (setting [2]) is 0.55 nM. Besides, the Ki at human EP2 receptors (setting [3]) is 23 nM.

Take `CC(C)(C)c1ccc(N2C(=O)CC[C@@H]2COCc2ccc(C(=O)O)s2)cc1`: the concentration for a half-maximal effect (EC50) in assay [1] (setting [2]) amounted to 51 nM. Further, the Ki turned out to be 27 nM on human EP2 receptors (setting [4]) and 501 nM on human EP2 receptors (setting [3]).

Regarding `CC(C)(C)c1ccc(N2C(=O)CC[C@@H]2CCCCCCC(=O)O)cc1`, the EC50 in assay [1] (setting [2]) was 548 nM. In addition, the Ki at human EP2 receptors (setting [3]) was greater than 10000 nM.

With `CCCCCC(O)c1ccc(N2C(=O)CC[C@@H]2CCCc2ccc(C(=O)O)s2)cc1` (single isomer, unassigned) [drawing 151], the EC50 in assay [1] (setting [2]) turned out to be 0.15 nM. Besides, the Ki at human EP2 receptors (setting [3]) worked out at 15 nM.
